Assay results taken from publication PMC11855827, “High-Throughput Screening of Five Compound Libraries for Anthelmintic Activity and Toxicity Leads to the Discovery of Two Flavonoid Compounds” (International Journal of Molecular Sciences, 2025).
Structures can show the parent of a compound that is named as a salt. Where two headings read alike, the source gives them in different places.

Tested on: C. elegans
Assay: microbe, parasite or virus in culture
Conditions: Caenorhabditis elegans
[1] = 0 h, read-out: Percentage of motility inhibition 0 h, Table S2, C. elegans SS assay, 110 μM, 0 h, averages of 4 data points
[2] = 24 h, read-out: Percentage of motility inhibition 24 h, Table S2, C. elegans SS assay, 110 μM, 24 h, averages of 4 data points
[3] = 0 h, read-out: Percentage of motility inhibition 0 h

## CSCC1CN(/N=C/c2ccc([N+](=O)[O-])o2)C(=O)O1 (stereo not shown) [Nifuratel]
[1]
  inhibition at 110 µM: 0%
[2]
  inhibition at 110 µM: 4%

## O=C(N/N=C/c1ccc([N+](=O)[O-])o1)c1cc([N+](=O)[O-])cc([N+](=O)[O-])c1O [Nifursol]
[1]
  inhibition at 110 µM: 8%
[2]
  inhibition at 110 µM: 6%

## O=[N+]([O-])c1cncn1CCN1CCOCC1 [Nimorazole]
[1]
  inhibition at 110 µM: 0%
[2]
  inhibition at 110 µM: 0%

## CC(=O)Oc1ccccc1C(=O)Nc1ncc([N+](=O)[O-])s1 [Nitazoxanide]
[1]
  inhibition at 110 µM: 51%
[2]
  inhibition at 110 µM: 49%

## CC(=O)Nc1ncc([N+](=O)[O-])s1 [Nithiamide]
[1]
  inhibition at 110 µM: 32%
[2]
  inhibition at 110 µM: 7%

## O=C1CN(/N=C/c2ccc([N+](=O)[O-])o2)C(=O)N1 [Nitrofurantoin]
[1]
  inhibition at 110 µM: 24%
[2]
  inhibition at 110 µM: 4%

## NC(=O)N/N=C/c1ccc([N+](=O)[O-])o1 [Nitrofurazone]
[1]
  inhibition at 110 µM: 25%
[2]
  inhibition at 110 µM: 22%

## COc1ccc(-c2cc(=O)c3c(OC)c(OC)c(OC)c(OC)c3o2)cc1OC [Nobiletin]
[1]
  inhibition at 110 µM: 0%
[2]
  inhibition at 110 µM: 0%

## C=C1C(=O)[C@]23C[C@H]1C[C@@H](O)[C@H]2[C@@]12CO[C@@H](O)[C@@H]1C(C)(C)CC[C@@H]2OC3=O [Nodosin]
[1]
  inhibition at 110 µM: 0%
[2]
  inhibition at 110 µM: 14%

## CC(=O)O[C@H]1CC(=O)OC(C)(C)[C@@H]2CC(=O)[C@]3(C)[C@H](CC[C@@]4(C)[C@H](c5ccoc5)OC(=O)[C@H]5O[C@]543)[C@@]12C [Nomilin]
[1]
  inhibition at 110 µM: 0%
[2]
  inhibition at 110 µM: 22%

## CCCCCCCCC(=O)NCc1ccc(O)c(OC)c1 [Nonivamide]
[2]
  inhibition at 110 µM: 0%

## C=C(C)[C@@H]1CCC2=CC(=O)C[C@@H](C)[C@]2(C)C1 [Nootkatone]
[1]
  inhibition at 110 µM: 28%
[2]
  inhibition at 110 µM: 20%

## c1ccc2c(c1)[nH]c1cnccc12 [Norharmane]
[1]
  inhibition at 110 µM: 0%
[2]
  inhibition at 110 µM: 9%

## O=c1cc(-c2ccccc2)oc2c(O)c(O)cc(O)c12 [Norwogonin]
[1]
  inhibition at 110 µM: 0%
[2]
  inhibition at 110 µM: 12%

## COc1cc2c3c(c1OC)-c1ccccc1C[C@H]3N(C)CC2 [Nuciferine]
[1]
  inhibition at 110 µM: 0%
[2]
  inhibition at 110 µM: 16%

## Cc1onc(-c2ccccc2)c1C(=O)N1CCN(c2ccc([N+](=O)[O-])cc2Cl)CC1 [Nucleozin]
[1]
  inhibition at 110 µM: 17%
[2]
  inhibition at 110 µM: 8%

## CNCc1ccccc1 [N‐Methylbenzylamine]
[1]
  inhibition at 110 µM: 0%
[2]
  inhibition at 110 µM: 4%

## CNC(=O)c1cccnc1 [N‐Methylnicotinamide]
[1]
  inhibition at 110 µM: 3%
[2]
  inhibition at 110 µM: 0%

## CC1COc2c(N3CCN(C)CC3)c(F)cc3c(=O)c(C(=O)O)cn1c23 (stereo not shown) [Ofloxacin]
[1]
  inhibition at 110 µM: 2%
[2]
  inhibition at 110 µM: 0%

## CC1(C)CC[C@]2(C(=O)O)CC[C@]3(C)C(=CC[C@@H]4[C@@]5(C)CCC(=O)C(C)(C)[C@@H]5CC[C@]43C)[C@@H]2C1 [Oleanonic acid]
[3]
  inhibition at 110 µM: 15%

## CCCCCCCC/C=C\CCCCCCCC(=O)O [Oleic acid]
[1]
  inhibition at 110 µM: 0%
[2]
  inhibition at 110 µM: 0%

## C/C=C1/[C@H](O[C@@H]2O[C@H](CO)[C@@H](O)[C@H](O)[C@H]2O)OC=C(C(=O)OC)[C@H]1CC(=O)OCCc1ccc(O)c(O)c1 [Oleuropein]
[1]
  inhibition at 110 µM: 0%
[2]
  inhibition at 110 µM: 0%

## COc1ccc(-c2coc3cc(O[C@@H]4O[C@H](CO)[C@@H](O)[C@H](O)[C@H]4O)ccc3c2=O)cc1 [Ononin]
[1]
  inhibition at 110 µM: 10%
[2]
  inhibition at 110 µM: 0%

## C=C1C(=O)[C@]23[C@H](O)[C@H]1CC[C@H]2[C@@]12CO[C@]3(O)[C@@H](O)[C@@H]1C(C)(C)CC[C@@H]2O [Oridonin]
[1]
  inhibition at 110 µM: 0%
[2]
  inhibition at 110 µM: 3%

## Cc1ncc([N+](=O)[O-])n1CC(O)CCl (stereo not shown) [Ornidazole]
[1]
  inhibition at 110 µM: 8%
[2]
  inhibition at 110 µM: 7%

## COc1c(O)cc2oc(-c3ccccc3)cc(=O)c2c1O [Oroxylin A]
[1]
  inhibition at 110 µM: 39%
[2]
  inhibition at 110 µM: 12%

## O=C(Nc1ccc(O)cc1)c1ccccc1O [Osalmid]
[1]
  inhibition at 110 µM: 48%
[2]
  inhibition at 110 µM: 1%

## CN(C(=O)CN(CCO)CC(=O)N(C)C(C)(C)Cc1ccccc1)C(C)(C)Cc1ccccc1 [Oxethazaine]
[1]
  inhibition at 110 µM: 44%
[2]
  inhibition at 110 µM: 25%

## COC(=O)Nc1nc2ccc([S+]([O-])c3ccccc3)cc2[nH]1 (stereo not shown) [Oxfendazole]
[1]
  inhibition at 110 µM: 12%
[2]
  inhibition at 110 µM: 5%

## CCCOc1ccc2nc(NC(=O)OC)[nH]c2c1 [Oxibendazole]
[1]
  inhibition at 110 µM: 17%
[2]
  inhibition at 110 µM: 28%

## O=C1Cc2ccccc2N1 [Oxindole]
[1]
  inhibition at 110 µM: 14%
[2]
  inhibition at 110 µM: 7%

## O=C(Nc1cc(Cl)cc(Cl)c1O)c1c(O)c(Cl)cc(Cl)c1Cl [Oxyclozanide, reference compound]
0 h, read-out: Inhibition (%) 110 μM (0 h), C. elegans L4 motility, 110 μM, 0 h, mean ± SD of four experiments
  inhibition at 110 µM: 10 ± 9%
24 h, read-out: Inhibition (%) 110 μM (24 h), C. elegans L4 motility, 110 μM, 24 h, mean ± SD of four experiments
  inhibition at 110 µM: 93 ± 5%

## CCCCC1C(=O)N(c2ccccc2)N(c2ccc(O)cc2)C1=O (stereo not shown) [Oxyphenbutazone]
[1]
  inhibition at 110 µM: 0%
[2]
  inhibition at 110 µM: 0%

## O=C1C=CC[C@@H]2[C@H]3CCC[N+]4([O-])CCC[C@@H](CN12)[C@@H]34 (stereo partly shown) [Oxysophocarpine]
[1]
  inhibition at 110 µM: 34%
[2]
  inhibition at 110 µM: 0%

## CN(C)[C@@H]1C(O)=C(C(N)=O)C(=O)[C@@]2(O)C(O)=C3C(=O)c4c(O)cccc4[C@@](C)(O)[C@H]3[C@H](O)[C@@H]12 [Oxytetracycline]
[1]
  inhibition at 110 µM: 20%
[2]
  inhibition at 110 µM: 13%

## O=[N+]([O-])c1cn2c(n1)OC[C@@H](OCc1ccc(OC(F)(F)F)cc1)C2 [PA‐824]
[1]
  inhibition at 110 µM: 33%
[2]
  inhibition at 110 µM: 0%

## CC(C)OC(=O)[C@H](C)N[P@](=O)(OC[C@H]1O[C@@H](n2ccc(=O)[nH]c2=O)[C@](C)(F)[C@@H]1O)Oc1ccccc1 [PSI‐7977]
[1]
  inhibition at 110 µM: 6%
[2]
  inhibition at 110 µM: 11%

## C=C(CC[C@@H](C(=O)O)[C@H]1[C@H](O)C[C@@]2(C)C3=C(CC[C@]12C)[C@@]1(C)CC[C@H](OC(C)=O)C(C)(C)[C@@H]1CC3)C(C)C [Pachymic acid]
[1]
  inhibition at 110 µM: 45%
[2]
  inhibition at 110 µM: 21%

## C[C@@]12C[C@@]3(O)O[C@@H](O1)[C@]1(COC(=O)c4ccccc4)[C@H]3C[C@@]12O[C@@H]1O[C@H](CO)[C@@H](O)[C@H](O)[C@H]1O [Paeoniflorin]
[1]
  inhibition at 110 µM: 4%
[2]
  inhibition at 110 µM: 10%

## COc1ccc(C(C)=O)c(O)c1 [Paeonol]
[3]
  inhibition at 110 µM: 0%
24 h, read-out: Percentage of motility inhibition 24 h
  inhibition at 110 µM: 0%

## CC1(C)CCC[C@](C)([C@H]2CC[C@]3(C)[C@@H]2[C@H](O)C[C@@H]2[C@@]4(C)CC[C@H](O)C(C)(C)[C@@H]4CC[C@]23C)O1 [Panaxadiol]
[1]
  inhibition at 110 µM: 39%
[2]
  inhibition at 110 µM: 36%

## C=C1C(=O)O[C@H]2[C@H]1CC/C(C)=C/CC[C@@]1(C)O[C@@H]21 [Parthenolide]
[1]
  inhibition at 110 µM: 6%
[2]
  inhibition at 110 µM: 26%

## COc1ccc(-c2cc(=O)c3c(O)c(OC)c(O)cc3o2)cc1 [Pectolinarigenin]
[1]
  inhibition at 110 µM: 4%
[2]
  inhibition at 110 µM: 0%

## C[C@@H]1CC[C@]2(C(=O)O[C@@H]3O[C@H](CO)[C@@H](O)[C@H](O)[C@H]3O)CC[C@]3(C)C(=CC[C@@H]4[C@@]5(C)CC[C@H](O)[C@@](C)(CO)[C@@H]5CC[C@]43C)[C@@H]2[C@]1(C)O [Pedunculoside]
[1]
  inhibition at 110 µM: 14%
[2]
  inhibition at 110 µM: 13%

## Nc1nc2c(ncn2CCC(CO)CO)c(=O)[nH]1 [Penciclovir]
[1]
  inhibition at 110 µM: 22%
[2]
  inhibition at 110 µM: 1%

## CC1(C)S[C@@H]2[C@H](NC(=O)Cc3ccccc3)C(=O)N2[C@H]1C(=O)O [Penicillin G s odium salt]
[1]
  inhibition at 110 µM: 16%
[2]
  inhibition at 110 µM: 22%

## CC(C)CC(C)c1sccc1NC(=O)c1cn(C)nc1C(F)(F)F (stereo not shown) [Penthiopyrad]
[1]
  inhibition at 110 µM: 21%
[2]
  inhibition at 110 µM: 18%

## CC(=O)O[C@@H]1[C@H]2[C@H]3C[C@H]4C5=Nc6ccccc6[C@]51C[C@@H]2N4[C@H](C)C3C=O (stereo partly shown) [Perakine]
[1]
  inhibition at 110 µM: 0%
[2]
  inhibition at 110 µM: 0%

## CC1(C)C(C=C(Cl)Cl)C1C(=O)OCc1cccc(Oc2ccccc2)c1 (stereo not shown) [Permethrin]
[1]
  inhibition at 110 µM: 9%
[2]
  inhibition at 110 µM: 7%

## O=C(O)c1cccc2nc3ccccc3nc12 [Phenazine‐1‐carboxylic acid]
[1]
  inhibition at 110 µM: 0%
[2]
  inhibition at 110 µM: 11%

## O=C(CCc1ccc(O)cc1)c1c(O)cc(O)cc1O[C@@H]1O[C@H](CO)[C@@H](O)[C@H](O)[C@H]1O [Phlorizin]
[1]
  inhibition at 110 µM: 0%
[2]
  inhibition at 110 µM: 2%

## CC1=C[C@H]2[C@@]3(O)[C@H](C)[C@@H](O)[C@]4(O)[C@H]([C@@H]3C=C(CO)C[C@]2(O)C1=O)C4(C)C [Phorbol]
[1]
  inhibition at 110 µM: 0%
[2]
  inhibition at 110 µM: 6%

## CC(=O)NS(=O)(=O)c1ccc(NC(=O)c2ccccc2C(=O)O)cc1 [Phthalylsulfacetamide]
[1]
  inhibition at 110 µM: 32%
[2]
  inhibition at 110 µM: 2%

## O=C(O)c1ccccc1C(=O)Nc1ccc(S(=O)(=O)Nc2nccs2)cc1 [Phthalylsulfathiazole]
[1]
  inhibition at 110 µM: 12%
[2]
  inhibition at 110 µM: 0%

## COc1cc(C(=O)O[C@H]2[C@@H]3C=CO[C@@H](O[C@@H]4O[C@H](CO)[C@@H](O)[C@H](O)[C@H]4O)[C@@H]3[C@@]3(CO)O[C@@H]23)ccc1O [Picroside II]
[1]
  inhibition at 110 µM: 0%
[2]
  inhibition at 110 µM: 13%

## O=C(/C=C/c1ccccc1)OC[C@H]1O[C@@H](O[C@@H]2OC=C[C@H]3[C@H](O)[C@@H]4O[C@]4(CO)[C@@H]23)[C@H](O)[C@@H](O)[C@@H]1O [Picroside I]
[1]
  inhibition at 110 µM: 6%
[2]
  inhibition at 110 µM: 17%

## CC(C)(O)[C@@H]1[C@H]2OC(=O)[C@@H]1[C@]1(O)C[C@H]3O[C@]34C(=O)O[C@H]2[C@]14C [Picrotin]
[1]
  inhibition at 110 µM: 0%
[2]
  inhibition at 110 µM: 0%
